Laboratory results: US8596557B2, “Pest control aerosol sprayer” (Fumakilla Limited, priority 2008, dated 2013)

Assays:
[1] = Back-fire test of aerosol sprayers loaded with various gases (Test Example 1); conditions: sprayed 5 seconds towards burner flame, sprayer at 25° C.
Protocol: (§1) Test Example 1 relates to back-fire tests for the aerosol sprayer using various gases. Specifically, aerosol sprayers loaded with various gases acting as both propellant and refrigerant were prepared. And, after these aerosol sprayers were immersed in a thermostatic bath at 25° C. for 1 hour, each of them was arranged with the flame, as a fire origin, of an ignited burner so that the spray nozzle of its head cap and the flame lied horizontally in the same height. And, each gas was sprayed from the spray nozzle of the head cap in the aerosol sprayer for 5 seconds towards the flame as the fire origin to check if there was a backfire. This was repeated a plurality of times. Here, the fire origin was spaced from the spray nozzle at a distance of 15 cm and at a distance of 60 cm.
Further, HFO-1234ze as another alternative for chlorofluorocarbon was also subjected to the same backfire tests as for HFC-152a and HFC-134a in Text Example 1 mentioned above.

Periplaneta fuliginosa = assay: Biological test: knockdown and fatality after 3 second spray from 50 cm (Test Example 3); format: in vivo; conditions: female adult
Protocol: (§2) In Test Example 3, modes of spraying from the spray nozzle 10 in the head cap 2 were examined. This is to examine the refrigerating and behavioral inhibiting effects on a noxious insect by a noxious insect behavioral inhibitor A which is sprayed from the spray nozzle 10. Specifically, a wooden flooring was prepared on which a glass ring (having a diameter of 9 cm and a height of 6 cm) was placed. […] And, one female adult of Periplaneta fuliginosa is introduced inside of the glass ring. On the other hand, two different head caps were prepared, one provided with a single spray nozzle 10 and the other provided with a pressure reducer means comprising an upper and a lower spray nozzle 10a and 10b. And, using them, the noxious insect behavioral inhibitor A is sprayed for 3 seconds toward the Periplaneta fuliginosa from a distance of 50 cm therefrom, and the state of the Periplaneta fuliginosa thereafter (possible knockdown after 2 minutes and after 1 hour and fatality after 24 hours) is observed. Further, the minimum temperatures of a target area of spraying are measured. And, the room temperature is 25° C., and the noxious insect behavioral inhibitor A is HFC-152a alone (100%). The two head caps 2, the one with the single spray nozzle 10 and the other with the two spray nozzles 10, are made to spray substantially at a identical rate of spraying.
(§3) Also, in Test Example 3, noxious insect behavioral inhibitors containing HFO-1234ze alone (100%), at a content of 75% and at a content of 50% were examined. What is mixed is dimethyl ether.

[2] = Mode of spraying: average particle size and minimum temperature of target area (Test Example 3); format: physicochemical
Protocol: as §2, §3

[3] = Back-fire test on content of HFC-152a / HFO-1234ze mixed with LPG or dimethyl ether (Test Example 2); conditions: varied mixture ratio, sprayed 5 seconds towards burner flame
Protocol: as §1, with “In Test” for “Test”, “Example 2, aerosol sprayers using HFC-152a as an alternative for chlorofluorocarbon were tested on its content. This, too,” for “Example 1”, “back-fire tests.” for “back-fire tests for the aerosol sprayer using various gases.”, “with HFC-152a alone” for “with various gases acting as both propellant”, “and mixtures of HFC-15a with LPG or dimethyl ether (in varied mixture ratio)” for “and refrigerant”, “15” for “15 cm and at a distance of 60”
Further, HFO-1234ze as another alternative for chlorofluorocarbon was also tested on its content as in Text Example 2 above. Specifically, aerosol sprayers loaded with HFO-1234ze alone and mixtures of HFO-1234ze with LPG or dimethyl ether (in varied mixture ratio) were prepared. […]

[4] = two spray nozzles (upper 1.5 mm, lower 1.8 mm), n = 10
[5] = two spray nozzles (upper 1.5 mm, lower 1.8 mm)
[6] = single spray nozzle (1.5 mm diameter), n = 10

## FCC(F)(F)F [HFC-134a (100%)]
[1]
  Backfire, 15 cm distant from Fire Origin: Not Backfired
  Backfire, 60 cm distant from Fire Origin: Not Backfired

## FC=CC(F)(F)F [HFO-1234ze (100%), 1,3,3,3-tetrafluoropropene]
Periplaneta fuliginosa; [4]
  Fatality after 24 hours: 60%
  Knockdown rate after 2 minutes: 100%
  Knockdown rate after 1 hour: 100%
[1]
  Backfire, 15 cm distant from Fire Origin: Not Backfired
  Backfire, 60 cm distant from Fire Origin: Not Backfired
[2]; [5]
  Average particle size: 120 μm
[3]
  Backfire, 15 cm distant from Fire Origin (content test): Not Back-fired

## CC(F)F [HFC-152a (100%), 1,1-difluoroethane]
Periplaneta fuliginosa; [6]
  Fatality after 24 hours: 10%
  Knockdown rate after 1 hour: 40%
Periplaneta fuliginosa; single spray nozzle (1.5 mm diameter), n = 10, room temperature 25° C.
  Knockdown rate after 2 minutes: 90%
Periplaneta fuliginosa; [4]
  Fatality after 24 hours: 100%
  Knockdown rate after 2 minutes: 100%
  Knockdown rate after 1 hour: 100%
[1]
  Backfire, 15 cm distant from Fire Origin: Not Backfired
  Backfire, 60 cm distant from Fire Origin: Not Backfired
[2]; single spray nozzle (1.5 mm diameter)
  Average particle size: 57 μm
[2]; [5]
  Average particle size: 97 μm
[3]
  Backfire, 15 cm distant from Fire Origin (content test): Not Back-fired

## COC [dimethyl ether (100%), dimethyl ether, reference compound]
[1]
  Backfire, 15 cm distant from Fire Origin: Backfired
  Backfire, 60 cm distant from Fire Origin: Backfired
